Holding throughout (type): cell-based
Common to all, as to details: broth microdilution in MHB, peptide 128 down to 0.5 µg/mL, 20–24 h at 37 °C, no visible growth; range of three independent experiments

The test system of assay [1] is Escherichia coli ATCC 25922. The method, then: (§1) Bacteria were grown overnight at 37 °C in Mueller-Hinton Broth (MHB; Sigma-Aldrich, St. Louis. MO, USA) in a shaking incubator and aliquoted into cryovials with a 50% glycerol solution in a 1:1 ratio. No additives were added to the MHB during the growth of bacterial isolates. Glycerol stocks were stored at −80 °C.
(§2) The antimicrobial activity of the putative AMPs was determined by a broth microdilution assay as described by the Clinical and Laboratory Standards Institute, with the published adaptations for testing of cationic peptides. Escherichia coli 25922 and Staphylococcus aureus 29213 isolates were purchased from the American Type Culture Collection (ATCC; Manassas, VA, USA). A human clinical isolate of Salmonella enterica serovar Enteritidis was provided by the BC Centre for Disease Control. Bacteria from stocks stored at −80 °C were streaked onto nonselective Columbia blood agar with 5% sheep blood (Oxoid) and incubated overnight at 37 °C. Next, 2–4 colonies were streaked onto a new agar plate to ensure uniform health of colonies used in the broth microdilution assay. Isolated colonies were suspended in MHB and the optical density was measured with a spectrophotometer to create an initial inoculum concentration of approximately 1 × 10^8 cfu/mL. The inoculum was diluted 1:250 to a final concentration of 2–8 × 10^5 cfu/mL, which was confirmed by performing a Total Viability Count (TVC). The TVC consisted of plating a 1:1000 dilution of the final inoculum on nonselective media and was also used to confirm the health and purity of the inoculum in each trial.
(§3) Lyophilized 80 µg peptide aliquots synthesized by GenScript (Piscataway, NJ, USA) were resuspended to 1.28 mg/mL with UltraPure water (Thermo Fisher Scientific, Waltham, MA, USA) and serially diluted in polypropylene 96-well microtiter plates (Greiner Bio-One #650261, Kremsmünster, Austria) from 128 down to 0.5 µg/mL. Two columns per plate were reserved for growth and sterility controls. Inoculum was added to the wells containing the peptide and the growth control. Plates were incubated for 20–24 h at 37 °C. The minimum inhibitory concentration (MIC) was determined as the lowest peptide concentration where there was no visible bacterial growth.

The test system of assay [2] is Salmonella enterica serovar Enteritidis (human clinical isolate). The method, then: as §1, §2, §3
For assay [3], the system named is Staphylococcus aureus ATCC 29213. The procedure: as §1, §2, §3

Values after ≈ are worked out from the molar mass of the structure shown. Residues, ends and D or L forms follow the SMILES beside them. No end group written: not given here.

This note sets out measurements from publication PMC9774241, “Associating Biological Activity and Predicted Structure of Antimicrobial Peptides from Amphibians and Insects” (Antibiotics, 2022).

For the compound `CC(C)C[C@H](NC(=O)CN)C(=O)N[C@@H](CC(C)C)C(=O)NCC(=O)N[C@@H](CCCCN)C(=O)N[C@H](C(=O)N[C@@H](CC(C)C)C(=O)NCC(=O)N[C@H](C(=O)NCC(=O)N[C@@H](CCCCN)C(=O)N[C@@H](CCCCN)C(=O)N[C@H](C(=O)N[C@@H](CC(C)C)C(=O)N[C@@H](CS)C(=O)NCC(=O)N[C@H](C(=O)N[C@H](C(=O)NCC(=O)N[C@@H](CCCNC(=N)N)C(=O)N[C@@H](CCC(=O)O)C(=O)N[C@@H](CCCNC(=N)N)C(=O)N[C@@H](CS)C(=O)N[C@@H](CCC(N)=O)C(=O)O)[C@@H](C)O)C(C)C)C(C)C)C(C)C)C(C)C` [PeNi5] (H-GLLGKVLGVGKKVLCGVTGRERCQ-OH; N-terminus and C-terminus assumed), the “MIC, E. coli ATCC 25922” value in assay [1] worked out at 32 mg/L (≈ 12.9 µM). Also, in assay [2], the “MIC, Salmonella Enteritidis” value amounted to 64 mg/L (≈ 25.9 µM). For the same compound, in assay [3], the “MIC, S. aureus ATCC 29213” value was greater than 128 mg/L.

For “GILSGLLGAGKKIVCGLSGMC [RaOm2, rAMPage-discovered AMP, Rana omeimontis]”, the “MIC, E. coli ATCC 25922” value in assay [1] is 64 to 128 mg/L. The “MIC, Salmonella Enteritidis” value in assay [2] is greater than 128 mg/L. In addition, the “MIC, S. aureus ATCC 29213” value in assay [3] is greater than 128 mg/L.

Take `CC[C@H](C)[C@H](NC(=O)[C@H](CCCCN)NC(=O)[C@H](CCCCN)NC(=O)CNC(=O)[C@H](C)NC(=O)CNC(=O)[C@H](CC(C)C)NC(=O)[C@H](CC(C)C)NC(=O)CNC(=O)[C@H](CO)NC(=O)[C@H](CC(C)C)NC(=O)[C@H](CC(C)C)NC(=O)CN)C(=O)N[C@H](C(=O)N[C@@H](CS)C(=O)NCC(=O)N[C@@H](CC(C)C)C(=O)N[C@@H](CO)C(=O)NCC(=O)N[C@@H](CCSC)C(=O)N[C@@H](CS)C(=O)O)C(C)C` [OdMa3] (H-GLLSGLLGAGKKIVCGLSGMC-OH; N-terminus and C-terminus assumed): the “MIC, E. coli ATCC 25922” value in assay [1] lay in the range of 8 to 16 mg/L. Moreover, the “MIC, Salmonella Enteritidis” value in assay [2] was determined as 64 mg/L (≈ 32.4 µM). Further, the “MIC, S. aureus ATCC 29213” value in assay [3] amounted to 32 mg/L (≈ 16.2 µM).

With GAFVLWGPTPRPRRR [DiLo1], the “MIC, E. coli ATCC 25922” value in assay [1] was found to be 128 mg/L. For the same compound, the “MIC, Salmonella Enteritidis” value in assay [2] was greater than 128 mg/L. In assay [3], the “MIC, S. aureus ATCC 29213” value was greater than 128 mg/L.

In the case of VPFGLKPR [TeRu1], in assay [1], the “MIC, E. coli ATCC 25922” value was greater than 128 mg/L. In assay [2], the “MIC, Salmonella Enteritidis” value was greater than 128 mg/L. For the same compound, the “MIC, S. aureus ATCC 29213” value in assay [3] was greater than 128 mg/L.

As for `CC[C@H](C)[C@H](NC(=O)CN)C(=O)N[C@@H](Cc1ccccc1)C(=O)NCC(=O)NCC(=O)N[C@@H](Cc1c[nH]cn1)C(=O)N[C@@H](CC(C)C)C(=O)N[C@@H](CCCCN)C(=O)N[C@H](C(=O)NCC(=O)N[C@@H](CCCCN)C(=O)N[C@@H](CCCCN)C(=O)N[C@H](C(=O)N[C@@H](C)C(=O)N[C@@H](CS)C(=O)NCC(=O)N[C@@H](CC(C)C)C(=O)N[C@@H](CO)C(=O)NCC(=O)N[C@@H](CC(C)C)C(=O)N[C@@H](CS)C(=O)O)[C@@H](C)CC)C(C)C` [OdTo2] (H-GIFGGHLKVGKKIACGLSGLC-OH; N-terminus and C-terminus assumed), the “MIC, E. coli ATCC 25922” value in assay [1] turned out to be 32 mg/L (≈ 15.5 µM). Also, in assay [2], the “MIC, Salmonella Enteritidis” value is greater than 128 mg/L. Besides, in assay [3], the “MIC, S. aureus ATCC 29213” value is greater than 128 mg/L.

Consider `CC[C@H](C)[C@H](NC(=O)CNC(=O)[C@H](CO)NC(=O)[C@@H](NC(=O)[C@H](CC(C)C)NC(=O)CN)[C@@H](C)CC)C(=O)N[C@@H](CC(C)C)C(=O)NCC(=O)N[C@@H](C)C(=O)NCC(=O)N[C@@H](CCCCN)C(=O)N[C@@H](CCCCN)C(=O)N[C@H](C(=O)N[C@@H](CC(C)C)C(=O)N[C@@H](CS)C(=O)NCC(=O)N[C@@H](CC(C)C)C(=O)N[C@@H](CO)C(=O)NCC(=O)N[C@@H](CC(C)C)C(=O)N[C@@H](CS)C(=O)O)C(C)C` [OdMa10] (H-GLISGILGAGKKVLCGLSGLC-OH; N-terminus and C-terminus assumed), for which the “MIC, E. coli ATCC 25922” value in assay [1] fell in the range of 16 to 32 mg/L. Also, in assay [2], the “MIC, Salmonella Enteritidis” value is greater than 128 mg/L. In addition, the “MIC, S. aureus ATCC 29213” value in assay [3] was in the range of 64 to 128 mg/L.

With GIYTGRLLPVYIPQPRPPHPRLRR [ApCe1], the “MIC, E. coli ATCC 25922” value in assay [1] was in the range of 4 to 8 mg/L. Further, the “MIC, Salmonella Enteritidis” value in assay [2] was 16 to 32 mg/L. For the same compound, in assay [3], the “MIC, S. aureus ATCC 29213” value was greater than 128 mg/L.

Consider `CC[C@H](C)[C@H](NC(=O)[C@H](CO)NC(=O)[C@@H]1CCCN1C(=O)[C@H](CC(C)C)NC(=O)[C@@H](NC(=O)[C@H](CCCCN)NC(=O)[C@H](C)NC(=O)[C@H](C)NC(=O)[C@H](CC(C)C)NC(=O)CNC(=O)[C@H](C)NC(=O)[C@@H](NC(=O)[C@@H](NC(=O)[C@@H]1CCCN1C(=O)[C@H](CC(C)C)NC(=O)[C@H](Cc1ccccc1)NC(=O)[C@H](CCCNC(=N)N)NC(=O)[C@H](CCC(N)=O)NC(=O)[C@H](CCC(=O)O)NC(=O)[C@@H](N)CCC(=O)O)C(C)C)C(C)C)C(C)C)C(=O)N[C@H](C(=O)N[C@@H](CS)C(=O)N[C@@H](C)C(=O)N[C@H](C(=O)N[C@H](C(=O)N[C@@H](CCCCN)C(=O)N[C@@H](CCCCN)C(=O)N[C@@H](CS)C(=O)O)[C@@H](C)O)C(C)C)[C@@H](C)CC` [RaSy2] (H-EEQRFLPVVAGLAAKVLPSIICAVTKKC-OH; N-terminus and C-terminus assumed), for which the “MIC, E. coli ATCC 25922” value in assay [1] is 64 mg/L (≈ 21.4 µM). The “MIC, Salmonella Enteritidis” value in assay [2] was greater than 128 mg/L. Besides, the “MIC, S. aureus ATCC 29213” value in assay [3] fell in the range of 64 to 128 mg/L.

`CC[C@H](C)[C@H](NC(=O)CN)C(=O)N[C@@H](CC(C)C)C(=O)N[C@@H](CO)C(=O)NCC(=O)N[C@@H](CC(C)C)C(=O)N[C@@H](CC(C)C)C(=O)NCC(=O)N[C@@H](C)C(=O)NCC(=O)N[C@@H](CCCCN)C(=O)N[C@@H](CCCCN)C(=O)N[C@H](C(=O)N[C@H](C(=O)N[C@@H](CS)C(=O)NCC(=O)N[C@@H](CC(C)C)C(=O)N[C@@H](CO)C(=O)NCC(=O)N[C@@H](CC(C)C)C(=O)N[C@@H](CS)C(=O)O)C(C)C)[C@@H](C)CC` [OdMa5] (H-GILSGLLGAGKKIVCGLSGLC-OH; N-terminus and C-terminus assumed): the “MIC, E. coli ATCC 25922” value in assay [1] lay in the range of 8 to 16 mg/L. Further, the “MIC, Salmonella Enteritidis” value in assay [2] lay within 64 to 128 mg/L. The “MIC, S. aureus ATCC 29213” value in assay [3] lay in the range of 8 to 16 mg/L.

Consider “GIFGGLLKEGKKIACGLSGLC [OdTo3, rAMPage-discovered AMP, Odorrana tormota]”, for which the “MIC, E. coli ATCC 25922” value in assay [1] came to 32 mg/L. Moreover, the “MIC, Salmonella Enteritidis” value in assay [2] is greater than 128 mg/L. Besides, the “MIC, S. aureus ATCC 29213” value in assay [3] was greater than 128 mg/L.

On to `CC(C)C[C@H](NC(=O)CNC(=O)[C@@H](NC(=O)[C@@H](NC(=O)CNC(=O)[C@H](CS)NC(=O)[C@H](CC(C)C)NC(=O)[C@@H](NC(=O)[C@H](CCCCN)NC(=O)[C@H](CCCCN)NC(=O)CNC(=O)[C@@H](NC(=O)CNC(=O)[C@H](CC(C)C)NC(=O)[C@@H](NC(=O)[C@H](CCCCN)NC(=O)CNC(=O)[C@H](CC(C)C)NC(=O)[C@H](CC(C)C)NC(=O)CN)C(C)C)C(C)C)C(C)C)C(C)C)[C@@H](C)O)C(=O)N[C@@H](CS)C(=O)O` [PeNi1] (H-GLLGKVLGVGKKVLCGVTGLC-OH), for which the “MIC, E. coli ATCC 25922” value in assay [1] came out at 4 mg/L (≈ 1.99 µM). In addition, the “MIC, Salmonella Enteritidis” value in assay [2] was 8 to 16 mg/L. The “MIC, S. aureus ATCC 29213” value in assay [3] was found to be 4 mg/L (≈ 1.99 µM).
